Measured values taken from ChEMBL document CHEMBL3400149, “Discovery of novel spiro 1,3,4-thiadiazolines as potent, orally bioavailable and brain penetrant KSP inhibitors” (Bioorg Med Chem, 2015).

What was measured:
[1] = target: T1, Kinesin-like protein KIF11 (Homo sapiens, UniProt P52732); test: Inhibition of KSP in human HCT116 cells assessed as phos-histone H3 level by immunofluorescent assay; assay type: cell-based, HCT-116
T1 sequence (P52732 whole entry): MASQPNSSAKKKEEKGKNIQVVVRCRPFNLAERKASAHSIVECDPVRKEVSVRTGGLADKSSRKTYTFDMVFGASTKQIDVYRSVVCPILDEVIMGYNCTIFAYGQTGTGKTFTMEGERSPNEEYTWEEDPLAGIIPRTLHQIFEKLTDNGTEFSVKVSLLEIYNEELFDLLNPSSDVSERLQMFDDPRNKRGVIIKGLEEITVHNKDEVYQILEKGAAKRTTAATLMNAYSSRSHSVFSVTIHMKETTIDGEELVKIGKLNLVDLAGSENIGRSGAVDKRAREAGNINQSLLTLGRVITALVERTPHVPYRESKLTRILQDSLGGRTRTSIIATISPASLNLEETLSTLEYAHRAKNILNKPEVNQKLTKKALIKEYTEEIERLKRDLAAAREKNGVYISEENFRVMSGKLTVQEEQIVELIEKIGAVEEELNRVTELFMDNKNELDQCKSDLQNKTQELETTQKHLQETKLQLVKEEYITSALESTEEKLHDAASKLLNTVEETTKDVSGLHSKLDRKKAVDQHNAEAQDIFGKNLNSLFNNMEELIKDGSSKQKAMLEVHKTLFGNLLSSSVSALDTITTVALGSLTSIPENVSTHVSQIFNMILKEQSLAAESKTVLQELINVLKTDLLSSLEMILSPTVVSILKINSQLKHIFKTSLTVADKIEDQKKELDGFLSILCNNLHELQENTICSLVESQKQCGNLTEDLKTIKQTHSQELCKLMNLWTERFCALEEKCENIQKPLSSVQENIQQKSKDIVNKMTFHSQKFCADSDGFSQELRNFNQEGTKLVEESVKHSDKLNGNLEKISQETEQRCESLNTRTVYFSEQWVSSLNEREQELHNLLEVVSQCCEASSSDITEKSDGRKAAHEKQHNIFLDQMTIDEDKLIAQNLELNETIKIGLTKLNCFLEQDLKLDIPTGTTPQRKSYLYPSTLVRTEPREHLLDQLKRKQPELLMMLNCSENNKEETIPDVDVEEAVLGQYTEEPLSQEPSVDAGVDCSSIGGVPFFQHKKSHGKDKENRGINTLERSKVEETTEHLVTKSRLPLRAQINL

[2] = Retention time of the compound; assay type: physicochemical
[3] = Cmax in beagle dog at 5 mg/kg, po; assay type: ADME, organism-based, Canis lupus familiaris; design: dose 5 mg/kg, route oral; conditions: in vivo
[4] = AUC in CD1 mouse at 10 mg/kg, po; assay type: ADME, organism-based; design: dose 10 mg/kg, route oral; conditions: plasma
[5] = AUC in Sprague-Dawley rat at 1 mg/kg, iv; assay type: ADME, organism-based; design: dose 1 mg/kg, route intravenous; conditions: plasma
[6] = AUC in beagle dog at 5 mg/kg, po; assay type: ADME, organism-based, Canis lupus familiaris; design: dose 5 mg/kg, route oral; conditions: plasma
[7] = Oral bioavailability in CD1 mouse at 10 mg/kg; assay type: ADME, organism-based; conditions: in vivo
[8] = Oral bioavailability in Sprague-Dawley rat at 5 mg/kg; assay type: ADME, organism-based; conditions: in vivo
[9] = AUC in beagle dog at 1 mg/kg, iv; assay type: ADME, organism-based, Canis lupus familiaris; design: dose 1 mg/kg, route intravenous; conditions: plasma
[10] = Clearance in beagle dog at 1 mg/kg, iv; assay type: ADME, organism-based, Canis lupus familiaris; design: dose 1 mg/kg, route intravenous; conditions: in vivo
[11] = AUC in Sprague-Dawley rat at 5 mg/kg, po; assay type: ADME, organism-based; design: dose 5 mg/kg, route oral; conditions: plasma
[12] = Cmax in Sprague-Dawley rat at 5 mg/kg, po; assay type: ADME, organism-based; design: dose 5 mg/kg, route oral; conditions: in vivo
[13] = AUC in CD1 mouse at 5 mg/kg, iv; assay type: ADME, organism-based; design: dose 5 mg/kg, route intravenous; conditions: plasma
[14] = Oral bioavailability in beagle dog at 5 mg/kg; assay type: ADME, organism-based, Canis lupus familiaris; conditions: in vivo
[15] = Cmax in CD1 mouse at 10 mg/kg, po; assay type: ADME, organism-based; design: dose 10 mg/kg, route oral; conditions: in vivo
[16] = Clearance in CD1 mouse at 5 mg/kg, iv; assay type: ADME, organism-based; design: dose 5 mg/kg, route intravenous; conditions: in vivo
[17] = Clearance in Sprague-Dawley rat at 1 mg/kg, iv; assay type: ADME, organism-based; design: dose 1 mg/kg, route intravenous; conditions: in vivo

An EC50 [1] of 17 nM was found for `CC(=O)N1N=C(c2cc(F)ccc2F)S[C@@]12c1cc(Cl)ccc1OC[C@H]2CCN` in this work.
With `NCC(=O)N1N=C(c2cc(F)ccc2F)SC12CCOc1ccccc12` (stereo not given) the EC50 [1] was > 1000 nM.
A Retention_time [2] of 5.4 min and an EC50 [1] of 11 nM were found for `CC(=O)N1N=C(c2cc(F)ccc2F)S[C@@]12c1ccccc1OC[C@@H]2CCN` in this work.
With `CC(=O)N1CCC2(SC(c3cc(F)ccc3F)=NN2C(C)=O)c2ccccc21` (stereo not given) the EC50 [1] was > 1000 nM.
In the case of `CC(=O)N1N=C(c2cc(F)ccc2F)SC12CCN(C)c1ccccc12` (stereo not given), the EC50 [1] is reported as > 1000 nM.
A Retention_time [2] of 2.15 min and an EC50 [1] of 205 nM were found for `CC(=O)N1N=C(c2cc(F)ccc2F)S[C@]12c1ccccc1OC[C@H]2CCN` in this work.
An EC50 [1] of 139 nM was found for `CC(=O)N1N=C(c2cc(F)ccc2F)SC12CCOc1ccccc12` (stereo not given) in this work.
With `CC(C)C(=O)N1N=C(c2cc(F)ccc2F)SC12CCOc1ccccc12` (stereo not given) the EC50 [1] was > 500 nM.
A Cmax [3] of 200 nM, an AUC [4] of 13.4 µM·h and an AUC [5] of 0.8 µM·h were found for `CC(=O)N1N=C(c2cc(F)ccc2F)S[C@@]12c1cc(F)cc(F)c1OC[C@H]2CCN` in this work. It also gave an AUC [6] of 1.7 µM·h, an EC50 [1] of 5 nM and a bioavailability [7] of 100%. The bioavailability [8] was 44%, the AUC [9] was 1.9 µM·h and the clearance [10] was 20 mL/min/kg. For the same molecule, the AUC [11] was 1.7 µM·h, the Cmax [12] was 180 nM and the AUC [13] was 6.5 µM·h. It also gave a bioavailability [14] of 18%, a Cmax [15] of 1200 nM and a clearance [16] of 29 mL/min/kg. It also gave a clearance [17] of 50 mL/min/kg.
For `CC(=O)N1N=C(c2cc(F)ccc2F)SC12CCCOc1ccccc12` (stereo not given), the EC50 [1] was > 1000 nM.
An EC50 [1] of 615 nM was found for `O=C(CO)N1N=C(c2cc(F)ccc2F)SC12CCOc1ccccc12` (stereo not given) in this work.
An EC50 [1] of 179 nM was found for `CC(=O)N1N=C(c2cc(F)ccc2F)SC12CCNc1ccccc12` (stereo not given) in this work.
In the case of `NCCC(=O)N1N=C(c2cc(F)ccc2F)SC12CCOc1ccccc12` (stereo not given), the EC50 [1] is reported as > 500 nM.
